Laboratory results reported in patent US20100274500A1, “METHOD AND SYSTEM FOR MEASURING MEMBRANE POTENTIAL BASED ON FLUORESCENCE POLARIZATION” (Seng Enterprises Ltd., priority 2006, published 2010).
“And” between values parts separate entries of the source, which are not always exact repeats. Equal entries are not always repeated.

Columns and labels:
U937 promonocytic cells [1] = assay: Fluorescence polarization measurements in U937 cells stained with Rh123; format: cell-based; conditions: for Mean Polarization: average based on 300 U937 cells stained with Rh123; for Mean Polarization / Mean FP, Left Cell / Mean FP, Right Cell: CCCP 5 μM or Nigericin 5 μg/ml, 15 minutes; for Mean FP, Left Cell / Mean FP, Right Cell: overall polarization of the entire cell, U937 stained with Rh123
Experimental: Fluorescence polarization (FP) evaluation was conducted using U937 promonocytic cells under the following physiological conditions: control, following treatment with CCCP and following treatment with Nigericin. All the cells were stained with Rh123, rinsed, loaded in cell chips and then measured. Cell treatment: U937 promonocytic cells were treated with an oxidative phosphorylation uncoupler CCCP (commercially available from Sigma-Aldrich) at a concentration of 5 μM and Nigericin (commercially available from Sigma-Aldrich) at 5 μg/ml for 15 minutes. Cell staining: Cells were stained by treating with […] Rh123 and loaded in cell chips. Fluorescence polarization measurement: Transmitted light images and fluorescence images were obtained parallel to the excitation field (excitation and emission polarizers set at 0°), and perpendicular to it, with the excitation polarizer set at 0°, and the emission polarizer set at 90°. From every pair of parallel and perpendicular images, the FP value was calculated for each pixel, using the following equation and a polarization map was created according to the following equation: In order to obtain a calibration reference point, the polarization value was obtained from the entire cell. […] Accordingly, a cell chip was used which allowed defining the borders of the cell by means of images of the cell received through transmitted light photographs. The borders were projected on the polarization map and the FP average was calculated for each cell. This process was implemented to evaluate all the cells, and a general average was obtained for each given physiological state.

U937 promonocytic cells [2] = assay: Fluorescence lifetime measurements in U937 cells stained with Rh123; format: cell-based; conditions: for f1(weight) / α1(decay) / τ1(lifetime): long lifetime component (attributed to cytoplasm); for f2(weight) / α2(decay) / τ2(lifetime): short lifetime component (attributed to mitochondria); for fluorescence signal from the probe located in the mitochondria: weight of the short decay component
Experimental: Cell treatment: U937 promonocytic cells were treated with an oxidative phosphorylation uncoupler CCCP and Nigericin as described hereinabove.
Cell staining: Cells were stained by treating with Rh123 and loaded in cell chips.
Fluorescence lifetime measurement: Measurements were carried out using polarizers that were set at magic […]. Rh123 was excited by a 488 nm laser line. Fluorescence testing was conducted from 500 nm wavelengths and above (toward the red area).
The results were obtained from an average, encompassing 30 evaluations, with standard deviations recorded accordingly. The outstanding result is the fact that two lifetime groups were obtained, one long—above 4 nanoseconds—and one short—below 3 nanoseconds. In order to determine which region correlates with which lifetime group both the lifetimes and the weights were considered.

U937 cells = assay: Spectroscopic measurements in whole and ruptured cells stained with Rh123; format: cell-based
Experimental: There were two main goals to these experiments. The first goal was to ascertain whether a fluorescence intensity decreases in cells treated with CCCP, and similarly, to ascertain whether fluorescence intensity increases in cells treated with Nigericin. The second goal was to learn about the characteristics and amount of influence of the cellular medium on the Rh123 spectroscopic properties.
The cells were stained with Rh123 at a concentration of 3 μM and suspended in PBS, at a cell concentration of 350,000/ml. At this cell concentration, no scattered signal was detected in the fluorescence measurement setup.
The measurement was conducted in CARY spectrofluorometer. The excitation was performed at 480±10 nm and the fluorescence was collected using a 530±10 nm filter. The cell suspension was divided into 4 aliquots in volumes of 2 ml, each. First, the spectrum for all the parts was measured and a comparison was performed to verify equal cell concentration in each quota. Second, parts 3 and 4 were treated with CCCP, while acetone was added to parts 1 and 2, at the same concentration and volume as that in which the CCCP was dissolved, and a spectrum measurement was made. At the end of this process, parts 1 and 3 were ruptured by sonication (VCX 130, Sonics and Materials Inc, Newtown, USA), and parts 2 and 4 were centrifuged and the supernatant was removed to measure the background.
Since there are differences in the emission spectrum of Rh123 in the mitochondria and cytoplasm, the area under the emission graphs must also be calculated in estimating the given spectral effect of CCCP. The area is proportionate to the number of emitting molecules and not to the measured intensity.
Cell preparation and measurement were conducted using the Cary system, and were identical to those with CCCP, except that Nigericin was used for […] the cells.
The overall emission intensity was calculated as above for CCCP to investigate the cause of the fluorescence intensity increase by calculating the area below the emission graph. The columns show average values and standard deviation values of at least two identical experiments. The stars indicate the significant statistical differences before the ANOVA test.

[3] = system: mitochondria of U937 cells; assay: Mitochondrial membrane potential derived from lifetime decay weights with the Nernst equation; format: cell-based; conditions: estimated with the f value, Nernst equation at 300° K, VC/VM≅500, U937 cells treated with CCCP
Source text: The following example describes the use of weights ƒ and/or α, decay components, to estimate the probe concentration in the mitochondria and the cytoplasm and from this to derive the membrane potential using the Nernst Equation.
The weight is proportional to the total measured fluorescence signal from an area with a certain fluorescence lifetime. In relying on the results of the measurement, it can be assumed that the decay level in the mitochondria and the cytoplasm is equal and, therefore, is not taken into consideration. In order to convert the weight ratio to concentration ratios, it is necessary to multiply them by the inverted volume ratio, i.e., VC/VM (C-Cytoplasm, M-Mitochondria). Given that this ratio is constant for a certain type of synchronized cells, [data not shown], despite the complex measurement-calculation, it is enough to execute this operation only once.
Considering the Nernst equation at 300° K and the measured fluorescence signal: […]

[4] = Direct influence of pH on the fluorescence lifetime of Rh123 and NAO; format: physicochemical; conditions: Rh123 5 μg/ml, NAO 10 μM
Experimental: The intra-cellular environment is heterogeneous and multi-phased; therefore, changes may occur in the acidity level in different regions in the cell. Measurements were executed, for this reason, to test if the acidic level has any influence on the fluorescence lifetime of the Rh123. The measurements were conducted in a K2 system, in a suspension of Rh123 with a concentration of 13 μM and the suspension of NAO, in a concentration of 10 μM with an acidity level of 6.0, 7.4 and 8.5.

[5] = Direct influence of CCCP and Nigericin on emission spectrum, polarization and lifetime of Rh123 in suspension
Experimental: A suspension of Rh123 at a concentration of 0.5 μg/ml was prepared. The suspension was divided into three aliquots, each containing a volume of 1 ml. To the first part was added 2.5 μl of PBS. To the second part was added 2.5 μl CCCP at a concentration of 2 mM, so that a final concentration of 5 μM CCCP was reached. To the third part was added 2.5 μl of Nigericin, at a concentration of 2 mg/ml, so that a final concentration of 5 μg/ml Nigericin was reached.
In the first stage, the emission spectrum of the suspension was obtained, using CARY ECLIPSE. The suspensions were excited with 480 nm light and the fluorescence was measured between 500-600 nm, while the slits (emission and excitation) were 2.5 nm.
The direct influence of CCCP and/or Nigericin were tested on the same suspensions of Rh123, measuring the lifetimes in contrast to the control.

[6] = Direct influence of viscosity (glycerol) on FLT and FP of Rh123 and NAO; format: physicochemical; conditions: Rh123 5 μg/ml, NAO 10 μM
Experimental: In these tests, the fluorescence lifetime τF was also measured along with the rotational decay time τR. For this, Rh123 (5 μg/ml) and suspension NAO (10 μM) were dissolved in three glycerol suspensions (30%, 60% and 80% v/v) in PBS. Each measurement was performed in triplicate.

SMILES	Mean Polarization (U937 promonocytic cells [1])	Mean FP, Left Cell (U937 promonocytic cells [1])	Mean FP, Right Cell (U937 promonocytic cells [1])	f1(weight) (U937 promonocytic cells [2])	α1(decay) (U937 promonocytic cells [2])	τ1(lifetime) (U937 promonocytic cells [2])	f2(weight) (U937 promonocytic cells [2])	α2(decay) (U937 promonocytic cells [2])	τ2(lifetime) (U937 promonocytic cells [2])	fluorescence signal from the probe located in the mitochondria (U937 promonocytic cells [2])	Fluorescence life-time τF ([4]; pH 6.0)	Fluorescence life-time τF ([4]; pH 7.4)	Fluorescence life-time τF ([4]; pH 8.5)	FP ([6]; Glycerin 30% v/v in PBS)	τF ([6]; Glycerin 30% v/v in PBS)	τR (rotational decay time) ([6]; Glycerin 30% v/v in PBS)	FP ([6]; Glycerin 60% v/v in PBS)	τF ([6]; Glycerin 60% v/v in PBS)	τR (rotational decay time) ([6]; Glycerin 60% v/v in PBS)	FP ([6]; Glycerin 80% v/v in PBS)	further results
CO[C@@H]1C[C@@H](C[C@H]2CC[C@H](C)[C@H]([C@@H](C)C(=O)O)O2)O[C@]2(O[C@](C)([C@H]3CC[C@@](C)([C@@H]4O[C@@H]([C@H]5O[C@@](O)(CO)[C@H](C)C[C@@H]5C)C[C@@H]4C)O3)C[C@H]2C)[C@@H]1C [Nigericin]	0.258 ± 0.025	0.255 ± 0.057	0.253 ± 0.048	0.330	0.138 ± 0.048	7.735 ± 0.828 nsec	0.670	0.862 ± 0.030	2.519 ± 0.174 nsec	86%	–	–	–	–	–	–	–	–	–	–	polarization values in the mitochondrial areas (U937 promonocytic cells [1]; polarization map of U937 cells stained with Rh123, compared with control): lower; fluorescence signal from the probe found in the cytoplasm (U937 promonocytic cells [2]; weight of the long decay component): 14%; overall emission intensity from a suspension of ruptured cells (U937 cells; U937 cells treated prior to rupture, entire emission range): higher than that received from an untreated cell suspension; overall emission intensity from whole cells (U937 cells; whole U937 cells stained with Rh123, complete emission range): higher than that of untreated cells
N#CC(C#N)=NNc1cccc(Cl)c1 [CCCP]	0.346 ± 0.013	0.343 ± 0.034	0.324 ± 0.046	0.867	0.690 ± 0.105	4.27 nsec and 4.271 ± 0.292 nsec	0.133	0.310 ± 0.100	1.475 ± 0.423 nsec	about 30%	–	–	–	–	–	–	–	–	–	–	Δψ (mitochondrial membrane potential) [3]: ~−112.84 mV; number of fluorescent molecules (overall emission intensity following cell rupture) (U937 cells; ruptured U937 cells stained with Rh123, with and without CCCP): does not diminish the number of fluorescent molecules; leakage of the probe (background signal of the suspending solution) (U937 cells; supernatant of U937 cells stained with Rh123 following CCCP treatment): causes leakage from the entire cell; emission maximum wavelength of intra-cellular Rh123 following activation of CCCP (U937 cells; whole U937 cells stained with Rh123 3 μM, 534 nm before CCCP): 532 nm
COC(=O)c1ccccc1-c1c2ccc(=N)cc-2oc2cc(N)ccc12.Cl [Rh123]	–	–	–	–	–	–	–	–	–	–	4.204 ± 0.064 nsec	4.325 ± 0.007 nsec	4.215 ± 0.037 nsec	0.090 ± 0.007	3.861 ± 0.142 nsec	0.460 ± 0.010 nsec	0.200 ± 0.005	3.536 ± 0.018 nsec	2.219 ± 0.006 nsec	0.366 ± 0.010	lifetime of Rh123 in a water suspension (PBS) [5]: ~4.2 nsec; τF ([6]; Glycerin 80% v/v in PBS): 3.500 ± 0.211 nsec; τR (rotational decay time) ([6]; Glycerin 80% v/v in PBS): 8.463 ± 0.047 nsec
CCCCCCCCC[n+]1c2cc(N(C)C)ccc2cc2ccc(N(C)C)cc21.[Br-] [NAO]	–	–	–	–	–	–	–	–	–	–	1.086 ± 0.028 nsec	1.051 ± 0.003 nsec	1.066 ± 0.006 nsec	0.110 ± 0.007	1.599 ± 0.072 nsec	0.923 ± 0.181 nsec	0.179 ± 0.009	2.081 ± 0.056 nsec	1.298 ± 0.057 nsec	0.303 ± 0.004	τF ([6]; Glycerin 80% v/v in PBS): 2.556 ± 0.009 nsec; τR (rotational decay time) ([6]; Glycerin 80% v/v in PBS): 3.888 ± 0.181 nsec
